Measured values: PubChem BioAssay (NCI)
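Briefly, cells in 96-well plates were exposed to five compound concentrations for 48 h, and endpoints were estimated by linear interpolation. At the TGI there is no net growth.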

Assays:
Assay in all cases: growth of human tumour cells (NCI), 48 h
[1] = tested on: HCT-15 colon
[2] = tested on: HT29 colon
[3] = tested on: OVCAR-5 ovarian
[4] = tested on: RPMI-8226 leukemia
[5] = tested on: MALME-3M melanoma
[6] = tested on: NCI/ADR-RES ovarian
[7] = tested on: SNB-19 CNS
[8] = tested on: HOP-62 NSCLC
[9] = tested on: EKVX NSCLC
[10] = tested on: DU-145 prostate
[11] = tested on: SF-539 CNS
[12] = tested on: SK-MEL-2 melanoma
[13] = tested on: UACC-62 melanoma
[14] = tested on: T-47D breast

Structure (SMILES): CC(=O)Nc1nnc(S(C)(=O)=O)s1
- TGI [1]: > 100 µM
- TGI [2]: > 100 µM
- TGI [3]: > 100 µM
- TGI [4]: > 100 µM
- TGI [5]: > 100 µM
- TGI [6]: > 100 µM
- TGI [7]: > 100 µM
- TGI [8]: > 100 µM
- TGI [9]: > 100 µM
- TGI [10]: > 100 µM
- TGI [11]: > 100 µM

Structure (SMILES): CC(=O)NC1C(OCc2ccccc2)OC(COC(=O)CCCCCCCCCCNc2ccc([N+](=O)[O-])c3[nH]c4ccccc4c(=O)c23)C(O)C1OC(C)C(=O)NC(C)C(=O)NC(CCC(N)=O)C(=O)OCc1ccccc1 (stereo not drawn)
- TGI [1]: > 100 µM
- TGI [12]: > 100 µM
- TGI [2]: > 100 µM
- TGI [3]: > 100 µM
- TGI [4]: > 100 µM
- TGI [13]: > 100 µM
- TGI [7]: > 100 µM
- TGI [8]: > 100 µM
- TGI [9]: > 100 µM
- TGI [11]: > 100 µM

Structure (SMILES): COC(=O)C1=C(C(=O)OC)SC2(S1)C(C(=O)OC)=C(C(=O)OC)Sc1c2ssc1=Nc1ccc(Cl)cc1
- TGI [12]: 1.36 µM
- TGI [2]: 1.78 µM
- TGI [3]: 2.81 µM
- TGI [13]: 2.42 µM
- TGI [14]: 3.45 µM
- TGI [7]: 2.95 µM
- TGI [8]: 3.36 µM
- TGI [9]: 2.8 µM
- TGI [10]: 1.65 µM
- TGI [11]: 1.68 µM

Structure (SMILES): COP(=O)(OC)C(O)CC(C)C (stereo not drawn)
- TGI [12]: > 100 µM
- TGI [2]: > 100 µM
- TGI [3]: > 100 µM
- TGI [4]: > 100 µM
- TGI [13]: > 100 µM
- TGI [14]: > 100 µM
- TGI [7]: > 100 µM
- TGI [8]: > 100 µM
- TGI [9]: > 100 µM
- TGI [10]: > 100 µM

Structure (SMILES): CSC12c3cc(C)n(-c4ccccc4)c3CC(C)(C)CN1C(=O)C2Oc1ccccc1 (stereo not drawn)
- TGI [1]: > 100 µM
- TGI [12]: > 100 µM
- TGI [3]: > 100 µM
- TGI [4]: > 100 µM
- TGI [13]: > 100 µM
- TGI [14]: > 100 µM
- TGI [6]: > 100 µM
- TGI [7]: > 100 µM
- TGI [8]: > 100 µM
- TGI [9]: > 100 µM
- TGI [10]: > 100 µM
- TGI [11]: > 100 µM

Structure (SMILES): COC(=O)C1(C(=O)OC)N=C(C)OC1/C=C/c1ccccc1 (stereo not drawn)
- TGI [1]: > 100 µM
- TGI [12]: > 100 µM
- TGI [3]: > 100 µM
- TGI [4]: > 100 µM
- TGI [13]: > 100 µM
- TGI [14]: > 100 µM
- TGI [6]: > 100 µM
- TGI [7]: > 100 µM
- TGI [8]: > 100 µM
- TGI [9]: > 100 µM
- TGI [10]: > 100 µM

Structure (SMILES): CCOC1Oc2ccccc2-c2nc(SC)ncc21 (stereo not drawn)
- TGI [1]: > 100 µM
- TGI [12]: > 100 µM
- TGI [2]: > 100 µM
- TGI [3]: > 100 µM
- TGI [4]: > 100 µM
- TGI [13]: > 100 µM
- TGI [14]: > 100 µM
- TGI [6]: > 100 µM
- TGI [7]: > 100 µM
- TGI [9]: > 100 µM
- TGI [10]: > 100 µM
- TGI [11]: > 100 µM

Structure (SMILES): COC(=O)CCC(C)C1CCC2C3C(C[C@H](OC(C)=O)[C@]12C)[C@@]1(C)CCC2(C[C@H]1C[C@H]3OC(C)=O)OOC1(CC[C@]3(C)C4C[C@H](OC(C)=O)[C@]5(C)C(C(C)CCC(=O)OC)CCC5C4[C@H](OC(C)=O)C[C@@H]3C1)OO2 (stereo partly drawn)
- TGI [1]: > 100 µM
- TGI [12]: > 100 µM
- TGI [2]: > 100 µM
- TGI [3]: > 100 µM
- TGI [4]: > 100 µM
- TGI [5]: > 100 µM
- TGI [6]: > 100 µM
- TGI [7]: > 100 µM
- TGI [8]: > 100 µM
- TGI [9]: > 100 µM
- TGI [10]: > 100 µM

Structure (SMILES): Clc1ccc(-c2c(C3=NCCCN3)nnn2-c2ccccc2)cc1
- TGI [1]: > 100 µM
- TGI [12]: > 100 µM
- TGI [2]: > 100 µM
- TGI [3]: > 100 µM
- TGI [5]: > 100 µM
- TGI [13]: > 100 µM
- TGI [7]: > 100 µM
- TGI [8]: > 100 µM
- TGI [9]: > 100 µM
- TGI [11]: > 100 µM

Structure (SMILES): O=C1CSC(c2c[nH]c3ccccc23)N1c1ccccc1[N+](=O)[O-] (stereo not drawn)
- TGI [1]: > 100 µM
- TGI [2]: > 100 µM
- TGI [3]: > 100 µM
- TGI [4]: > 100 µM
- TGI [13]: > 100 µM
- TGI [14]: > 100 µM
- TGI [7]: > 100 µM
- TGI [8]: > 100 µM
- TGI [9]: > 100 µM
- TGI [10]: > 100 µM
- TGI [11]: > 100 µM
